In assay [1] the test system is splenic immune cells (T cells, myeloid cells, B cells, NK cells). Nature of the assay: mOX40L expression in splenic immune cells after IV LNP-circular RNA (flow cytometry). It counts as in vivo, C57BL/6 mice. As to conditions: 1 mg/kg intravenously, 24 hours, IL:P 5.7, 50:10:38.5:1.5. On the procedure: The ionizable lipid:helper lipid:cholesterol:PEG-lipid molar ratio of these LNPs was 50:10:38.5:1.5. Dialysis of the LNPs were performed using PBS. C57BL/6 female mice (6-8 weeks, n=4) were dosed at either LNP comprising Lipid 1 of Table […] or the Lipid 15 of Table 10f at 1 mg/kg intravenously.
Background: Flow cytometry measures light scatter and fluorescence of single cells or particles in a stream.

Assay [2] relates to splenic T cells. Nature of the assay: mOX40L expression in splenic T cells after IV LNP-circular RNA. The class given is in vivo, C57BL/6 mice. As to conditions: 1 mg/kg intravenously, 24 hours. The method, then: The ionizable lipid:helper lipid:cholesterol:PEG-lipid molar ratio of these LNPs was 50:10:38.5:1.5. C57BL/6 female mice (6-8 weeks, n=4) were dosed at 1 mg/kg intravenously. At 24 hours, the spleen from the mice were collected for flow cytometry analysis, tested for weight loss and measured for serum alanine aminotransferase (ALT) after blood collection. mOX40L expression was measured in splenic T cells.

The source of these data is patent publication US12415776B2, “Lipid nanoparticle compositions for delivering circular polynucleotides” (Orna Therapeutics, Inc., priority 2021, dated 2025).

Consider `CCCCCCCCCCCCC(O)CN(CCCO)CCCCCCCC(=O)OC(CCCCCCCC)CCCCCCCC` (centres unmarked) [Lipid 1 of Table 10e], for which, in assay [1], the “mOX40L transfection in splenic immune cells” value is given as “comparable or higher levels of mOX40L transfection”. In assay [2], the “mOX40L expression in splenic T cells” value is on record as “resulted in expression of mOX40L in splenic T cells”.
